B2: tripartite motif-containing protein 37 (TRIM37) (enzyme)
chain: MDEQSVESIAEVFRCFICMEKLRDARLCPHCSKLCCFSCIRRWLTEQRAQCPHCRAPLQLRELVNCRWAEEVTQQLDTLQLCSLTKHEENEKDKCENHHEKLSVFCWTCKKCICHQCALWGGMHGGHTFKPLAEIYEQHVTKVNEEVAKLRRRLMELISLVQEVERNVEAVRNAKDERVREIRNAVEMMIARLDTQLKNKLITLMGQKTSLTQETELLESLLQEVEHQLRSCSKSELISKSSEILMMFQQVHRKPMASFVTTPVPPDFTSELVPSYDSATFVLENFSTLRQRADPVYSPPLQVSGLCWRLKVYPDGNGVVRGYYLSVFLELSAGLPETSKYEYRVEMVHQSCNDPTKNIIREFASDFEVGECWGYNRFFRLDLLANEGYLNPQNDTVILRFQVRSPTFFQKSRDQHWYITQLEAAQTSYIQQINNLKERLTIELSRTQKSRDLSPPDNHLSPQNDDALETRAKKSACSDMLLEGGPTTASVREAKEDEEDEEKIQNEDYHHELSDGDLDLDLVYEDEVNQLDGSSSSASSTATSNTEENDIDEETMSGENDVEYNNMELEEGELMEDAAAAGPAGSSHGYVGSSSRISRRTHLCSAATSSLLDIDPLILIHLLDLKDRSSIENLWGLQPRPPASLLQPTASYSRKDKDQRKQQAMWRVPSDLKMLKRLKTQMAEVRCMKTDVKNTLSEIKSSSAASGDMQTSLFSADQAALAACGTENSGRLQDLGMELLAKSSVANCYIRNSTNKKSNSPKPARSSVAGSLSLRRAVDPGENSRSKGDCQTLSEGSPGSSQSGSRHSSPRALIHGSIGDILPKTEDRQCKALDSDAVVVAVFSGLPAVEKRRKMVTLGANAKGGHLEGLQMTDLENNSETGELQPVLPEGASAAPEEGMSSDSDIECDTENEEQEEHTSVGGFHDSFMVMTQPPDEDTHSSFPDGEQIGPEDLSFNTDENSGR
notes: Endogenous TRIM37 in extracts of human TNBC cell lines (MDA MB 468 nuclear extract for co-immunoprecipitation, HCC1806 whole cell extract for sucrose gradient)

Assays:
MDA-MB-468 cells = assay: Chemical inhibitor treatment with Dox, qRT-PCR of TRIM37; assay type: cell-based, human; conditions: in combination with Dox
Procedure: Quantitative RT-PCR (qRT-PCR). Total RNA was isolated and reverse transcribed using Superscript II Reverse Transcriptase (Invitrogen). Gene expression was normalized to Gapdh. Controls lacking reverse transcriptase were carried out in parallel to rule out the possibility of DNA contamination. Each sample was analyzed at least two independent times and the results from at least three different biological triplicates are presented.
(§1) Chemical inhibitor treatment. MDA-MB-468 cells were treated for 24 hrs with 10 µM Dox and small molecule inhibitors at the following concentrations: 10 µM KU000553 (Cayman Chemical), 50 µM AG490 (Cayman Chemical), and 40 µM HLM006474 (Sigma-Aldrich) for 24 hrs.

TRIM37 [1] = assay: Directed-ChIP assays; assay type: cell-based, human; conditions: MDA MB 468 cells, in combination with Dox
Procedure: Directed-ChIP assays. ChIP assays were performed as described previously (Bhatnagar et al., 2014) using cell extracts prepared 1 day after Cas9 transduction or inhibitor treatment, and antibodies against BMI1 (Abcam), H2Aub (Cell Signaling Technology), TRIM37 (Abcam), STAT1 (Cell Signaling Technology), STAT3 (Cell Signaling Technology), E2F1 (Cell Signaling Technology), and as a negative control, IgG. Each ChIP experiment was carried out at least three independent times and the results from at least three biological experiments, with technical duplicates, are shown.
as §1

TRIM37 [2] = assay: Immunoblotting of TRIM37 in treated cells; assay type: cell-based, human; conditions: TNBC cells
Procedure: Immunoblotting. Cell extracts were prepared by lysing cell pellet in RIPA buffer supplemented with 1 mM sodium ortho-vanadate and 10 mM PMSF. To prepare protein extract from mouse tissue, it was homogenized in lysis buffer (1% SDS, 1 mM sodium ortho-vanadate, 10 mM Tris pH 7.4 and protease inhibitor). Immunoblots were probed using antibodies against TRIM37 (Abcam), PARP (Cell Signaling Technology), p21 (Cell Signaling Technology), γ-ph-H2AX (Cell Signaling Technology), RAD51C (Invitrogen), ph-ATM (Cell Signaling Technology), ph-STAT1 (Cell Signaling Technology), ph-STAT3 (Cell Signaling Technology), ph-STAT5 (Cell Signaling Technology), BIM (Abcam), FOLR1 (R&D) and α-tubulin (Invitrogen).

[3] = target: B2; assay: sucrose gradient sedimentation of HCC1806 whole cell extract, immunoblot of fractions
Procedure: (§2) Sucrose gradient fractionation. Sucrose gradient sedimentation analysis was performed as described previously (Bhatnagar et al., 2014). Briefly, 10-40% gradients were formed by layering 200 µl NEB1 buffer containing 10%, 20%, 30% or 40% sucrose in a 13 x 51 mm centrifuge tube (Beckman) and allowed to equilibrate at room temperature for 2 hrs. Gradients were chilled, loaded with […] HCC1806 extract (adjusted to a volume of 200 µl) or 200 µl molecular weight markers (Sigma MW-GF-1000), and centrifuged in a Beckman SW 55 Ti rotor at 214,000 g for 14 hrs. Twenty-five fractions of 200 µl were collected. For the markers, 20 µl of each fraction was electrophoresed and Coomassie stained.

RAD50 = target: T1, RAD50 (human, UniProt Q92878 1-1312); assay: as above
T1 construct: Only co-sedimentation with TRIM37 is reported
T1 sequence (looked up): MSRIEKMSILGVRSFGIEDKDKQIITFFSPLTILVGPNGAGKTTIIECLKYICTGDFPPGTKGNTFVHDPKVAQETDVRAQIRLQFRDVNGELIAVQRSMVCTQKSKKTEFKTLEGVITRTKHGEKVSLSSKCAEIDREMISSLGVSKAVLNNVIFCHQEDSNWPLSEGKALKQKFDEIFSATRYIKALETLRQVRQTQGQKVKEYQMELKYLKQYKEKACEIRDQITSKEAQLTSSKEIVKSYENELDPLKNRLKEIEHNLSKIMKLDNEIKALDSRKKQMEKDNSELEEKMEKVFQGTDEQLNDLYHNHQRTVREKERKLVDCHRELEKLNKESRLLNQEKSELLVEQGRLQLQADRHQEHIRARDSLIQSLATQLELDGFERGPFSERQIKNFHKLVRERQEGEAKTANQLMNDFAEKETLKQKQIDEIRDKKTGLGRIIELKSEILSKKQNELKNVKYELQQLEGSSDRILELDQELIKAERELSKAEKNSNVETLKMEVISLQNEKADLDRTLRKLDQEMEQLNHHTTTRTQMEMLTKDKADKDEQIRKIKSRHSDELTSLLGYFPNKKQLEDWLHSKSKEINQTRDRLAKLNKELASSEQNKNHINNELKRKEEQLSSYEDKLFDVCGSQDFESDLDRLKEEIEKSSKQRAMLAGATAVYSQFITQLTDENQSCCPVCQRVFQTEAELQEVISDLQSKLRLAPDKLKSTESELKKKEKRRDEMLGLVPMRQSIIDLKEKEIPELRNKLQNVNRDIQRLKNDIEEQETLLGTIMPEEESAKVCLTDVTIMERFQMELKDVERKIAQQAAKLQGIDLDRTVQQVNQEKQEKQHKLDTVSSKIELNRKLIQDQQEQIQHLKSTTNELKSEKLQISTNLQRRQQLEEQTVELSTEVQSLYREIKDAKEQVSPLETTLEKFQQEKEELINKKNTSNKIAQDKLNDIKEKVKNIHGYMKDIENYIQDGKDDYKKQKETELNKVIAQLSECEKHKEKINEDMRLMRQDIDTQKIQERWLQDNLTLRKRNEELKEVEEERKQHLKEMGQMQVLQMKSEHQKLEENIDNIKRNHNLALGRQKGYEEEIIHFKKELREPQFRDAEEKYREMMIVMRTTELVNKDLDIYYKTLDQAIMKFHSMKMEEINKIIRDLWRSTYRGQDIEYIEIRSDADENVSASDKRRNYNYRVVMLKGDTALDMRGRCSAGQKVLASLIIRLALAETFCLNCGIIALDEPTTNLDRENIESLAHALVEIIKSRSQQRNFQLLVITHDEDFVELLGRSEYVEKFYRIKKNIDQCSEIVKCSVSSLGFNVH
Procedure: as §2

Molecule: N#C/C(=C/c1ccc(O)c(O)c1)C(=O)NCc1ccccc1 [AG490]
- TRIM37 upregulation following Dox-treatment (qRT-PCR) (MDA-MB-468 cells): blocks TRIM37 upregulation
- Dox-induced STAT1, STAT3, and E2F1 recruitment to TRIM37 (ChIP) (TRIM37 [1]): substantially decreased

Molecule: CCOc1ccc(C(Nc2ccccn2)c2ccc3ccc(C)nc3c2O)cc1C (stereo not drawn) [HLM006474]
- TRIM37 upregulation following Dox-treatment (qRT-PCR) (MDA-MB-468 cells): blocks TRIM37 upregulation
- Dox-induced STAT1, STAT3, and E2F1 recruitment to TRIM37 (ChIP) (TRIM37 [1]): substantially decreased

Molecule: O=c1cc(-c2cccc3c2Sc2ccccc2S3)oc(N2CCOCC2)c1 [KU000553]
- TRIM37 upregulation following Dox-treatment (qRT-PCR) (MDA-MB-468 cells): blocks TRIM37 upregulation

Molecule: N.N.[Cl][Pt][Cl] [cisplatin]
- TRIM37 expression post-treatment relative to DMSO (TRIM37 [2]): increased TRIM37 expression

Molecule: COc1cccc2c1C(=O)c1c(O)c3c(c(O)c1C2=O)C[C@@](O)(C(C)=O)C[C@@H]3O[C@H]1C[C@H](N)[C@H](O)[C@H](C)O1 [daunorubicin]
- TRIM37 expression post-treatment relative to DMSO (TRIM37 [2]): increased TRIM37 expression

B1: MRE11 (other, human, UniProt P49959 2-708, looked up)
chain: STADALDDENTFKILVATDIHLGFMEKDAVRGNDTFVTLDEILRLAQENEVDFILLGGDLFHENKPSRKTLHTCLELLRKYCMGDRPVQFEILSDQSVNFGFSKFPWVNYQDGNLNISIPVFSIHGNHDDPTGADALCALDILSCAGFVNHFGRSMSVEKIDISPVLLQKGSTKIALYGLGSIPDERLYRMFVNKKVTMLRPKEDENSWFNLFVIHQNRSKHGSTNFIPEQFLDDFIDLVIWGHEHECKIAPTKNEQQLFYISQPGSSVVTSLSPGEAVKKHVGLLRIKGRKMNMHKIPLHTVRQFFMEDIVLANHPDIFNPDNPKVTQAIQSFCLEKIEEMLENAERERLGNSHQPEKPLVRLRVDYSGGFEPFSVLRFSQKFVDRVANPKDIIHFFRHREQKEKTGEEINFGKLITKPSEGTTLRVEDLVKQYFQTAEKNVQLSLLTERGMGEAVQEFVDKEEKDAIEELVKYQLEKTQRFLKERHIDALEDKIDEEVRRFRETRQKNTNEEDDEVREAMTRARALRSQSEESASAFSADDLMSIDLAEQMANDSDDSISAATNKGRGRGRGRRGGRGQNSASRGGSQRGRADTGLETSTRSRNSKTAVSASRNMSIIDAFKSTRQQPSRNVTTKNYSEVIEVDESDVEEDIFPTTSKTDQRWSSTSSSKIMSQSQVSKGVDFESSEDDDDDPFMNTSSLRRNRR
notes: Only co-sedimentation with TRIM37 is reported
- binding result [3]: binds

Molecule: B2
- binding result (RAD50): binds

Reference: patent publication US20230270881A1, “ONCOGENIC TRIM37 IS A TARGETABLE EPIGENETIC DRIVER OF METASTASIS AND LINKS CHEMORESISTANCE AND METASTATIC FATE IN TRIPLE-NEGATIVE BREAST CANCER” (University of Virginia Patent Foundation, priority 2020, published 2023)
